Experiments:
[1] = system: H157; assay: SRB antiproliferative assay, H157; format: cell-based; conditions: Homo sapiens, NCI-H157, 48 h, read-out: IC50 H157
Protocol: Cancer cells (6 × 10^3 per well) were inoculated into 96-well plates. The treatment was carried out for 48 h, followed by SRB staining, and the absorption value was measured at 540 nm by a microplate reader. SAHA was used as a positive control, and the independent experiment was performed three times.

[2] = system: MDA-MB-231 cells; assay: Apoptosis analysis (annexin V, flow cytometry); conditions: 48 h
Protocol: Briefly, cell apoptosis analysis was measured by annexin V FITC/PI assay using Annexin v-PE/7-AAD Apoptosis Detection kit (BD). […] After 48 h, the drug-treated cells were washed three times with PBS; the cell suspension was collected and centrifuged; and the supernatant was removed.

[3] = system: MDA-MB-231 cells; assay: Cell cycle arrest analysis (PI, flow cytometry); conditions: for cell cycle arrest: MDA-MB-231
Protocol: After 24 h of cell cycle treatment, the cells were washed three times with PBS, and the cell suspension was collected, centrifuged again, and then added to an ethanol fixative (70%) and placed in a refrigerator for overnight storage. After washing, the dye was added and stained with PI containing RNaseA solution for 30 min at 37 °C, and then analyzed by FACS.

[4] = system: human lung epithelial cells (Beas-2B); assay: Antiproliferative activity against normal cells, Beas-2B; format: cell-based; conditions: read-out: Antiproliferative IC50 Beas-2B
Text: (§1) Two normal cell lines were selected: human lung epithelial cells (Beas-2B) and human liver epithelial cells (L-02).

[5] = system: human liver epithelial cells (L-02); assay: Antiproliferative activity against normal cells, L-02; format: cell-based; conditions: Epithelial cell, read-out: Antiproliferative IC50 L-02
Text: as §1

[6] = system: acetyl-histone H3; assay: Western blot analysis, acetyl-histone H3; format: cell-based, human; conditions: MDA-MB-231, 1, 2 and 5 µM, 48 h
Protocol: (§2) Based on the aforementioned results, western blot analysis was further performed by immunoblotting assay (β-actin as the negative control).
(§3) Briefly, MDA-MB-231 cells were lysed in lysis buffer (50 mM Tris-HCl pH 8.0, 5 mM EDTA, 100 mM NaCl, 0.5% NP-40, 1 mM PMSF) and then centrifuged for 10 min at 12,000 r, and the insoluble debris was discarded. Cell lysates were further analyzed with SDS-PAGE and western blotting with indicated antibodies. After treatment with 13a and 13c for indicated times, cells were harvested with RIPA buffer (150 mM sodium chloride, 1% Triton X-100, 0.5% sodium deoxycholate, 0.1% SDS, 50 mM Tris and cocktails of protease and phosphatase inhibitors) for 10 min at room temperature and boiled for another 10 min. Equal amounts of total proteins (35 μg) underwent 15% SDS-PAGE and were electroblotted onto the polyvinylidene difluoride (PVDF) membrane. The membrane was blocked with 5% (w/v) fat-free dry milk in PBS-Tween 20 (PBST; 0.05%) for 1 h and incubated with primary antibody (1:1000 in PBST) at 4 °C overnight. […] The relative quantity of proteins was analyzed via the Image J software (NIH, Bethesda, MD, USA).
(§4) (B) Quantitative analysis. The relative levels of Ac-H3 and Ac-H4 used to control β-actin were determined by densimetric scanning.

[7] = system: acetyl-histone H4; assay: Western blot analysis, acetyl-histone H4; format: cell-based, human; conditions: MDA-MB-231, 1, 2 and 5 µM, 48 h
Protocol: as §2, §3, §4

[8] = system: MDA-MB-231 cells; assay: Colony formation assay; conditions: MDA-MB-231, seven days, compared with SAHA
Protocol: One week after the addition of the drugs, the medium was removed. The cells were then washed three times with PBS and fixed in methanol for 5 min. The cells were lastly stained with 1% crystal violet (Beyotime) for 15 min and washed with PBS. Images were collected using a scanning apparatus (Canon, Tokyo, Japan).

[9] = system: MDA-MB-231; assay: SRB antiproliferative assay, MDA-MB-231; format: cell-based; conditions: Homo sapiens, MDA-MB-231, 48 h, read-out: IC50 MDA-MB-231
Protocol: (§5) Cancer cells (6 × 10^3 per well) were inoculated into 96-well plates. The treatment was carried out for 48 h, followed by SRB staining, and the absorption value was measured at 540 nm by a microplate reader.

[10] = system: A549; assay: SRB antiproliferative assay, A549; format: cell-based; conditions: Homo sapiens, A549, 48 h, read-out: IC50 A549
Protocol: as §5

[11] = system: MCF-7; assay: SRB antiproliferative assay, MCF-7; format: cell-based; conditions: Homo sapiens, MCF7, 48 h, read-out: IC50 MCF-7
Protocol: as §5

[12] = system: solid tumor cell lines; assay: Antiproliferative activity, summary over tumor cell lines; format: cell-based; conditions: Homo sapiens, read-out: IC50 values against solid tumor cell lines (range)
Protocol: as §5

[13] = molecular target: HDAC1 (Homo sapiens, UniProt Q13547); assay: HDAC1 inhibitory assay (Boc-Lys(Ac)-AMC substrate); format: biochemical; conditions: n ≥ 3, SD <20% of the mean; read-out: IC50 against HDAC1
Protocol: The enzyme inhibitory assay was conducted by Shanghai ChemPartner Corporation (Shanghai, China). […] Then the lysine developer was added to terminate the reaction, and the samples were further incubated at 37 °C for 30 min. […] Three independent experiments with triplicate were carried out.

HDAC1, sequence (Q13547 whole entry): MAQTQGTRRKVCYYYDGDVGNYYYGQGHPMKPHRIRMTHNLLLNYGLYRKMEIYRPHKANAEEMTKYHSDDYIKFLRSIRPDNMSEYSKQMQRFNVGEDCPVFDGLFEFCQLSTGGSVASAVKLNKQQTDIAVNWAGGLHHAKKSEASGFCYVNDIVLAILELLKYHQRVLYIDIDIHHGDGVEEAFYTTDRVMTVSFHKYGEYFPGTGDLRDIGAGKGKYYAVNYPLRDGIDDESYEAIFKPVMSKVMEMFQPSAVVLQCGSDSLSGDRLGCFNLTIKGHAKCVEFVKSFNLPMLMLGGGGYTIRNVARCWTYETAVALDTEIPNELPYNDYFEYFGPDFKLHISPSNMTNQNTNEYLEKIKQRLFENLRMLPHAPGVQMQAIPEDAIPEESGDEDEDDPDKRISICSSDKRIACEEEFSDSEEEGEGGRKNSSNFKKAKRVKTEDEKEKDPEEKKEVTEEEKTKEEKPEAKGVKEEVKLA

## O=C(CCCCCCC(=O)Nc1ccccc1)NO [Compound 1, vorinostat, reference compound]
[1]
  IC50: 1660 ± 140 nM
[2]; MDA-MB-231, 1 µM
  cell apoptosis: 7.3%
[2]; MDA-MB-231, 2 µM
  cell apoptosis: 12.6%
[3]; MDA-MB-231, 1 μM, 24 h
  cells in G2/M phase: 11.02%

## CCCOc1ccc2c(OCCCCCCCC(=O)NO)cc(=O)oc2c1 [Compound 13a, N-Hydroxy-8-((2-oxo-7-propoxy-2H-benzopyran-4-yl)oxy)octanoic acid]
[1]
  IC50: 1040 ± 80 nM
[4]
  IC50: > 50000 nM
[5]
  IC50: > 50000 nM
[6]
  acetylation level of histone H3: increased the acetylation levels of histone H3 and H4 in a clearly dose-dependent manner
[7]
  acetylation level of histone H4: increased the acetylation levels of histone H3 and H4 in a clearly dose-dependent manner
[8]
  inhibition of colony formation: significant inhibition of the colony formation more potently than SAHA
[2]; MDA-MB-231, 1 µM
  cell apoptosis: 13.24%
[2]; MDA-MB-231, 2 µM
  cell apoptosis: 18.01%
[3]
  cell cycle arrest: arrested MDA-MB-231 cells in a dose-dependent manner

## CCCCOc1ccc2c(OCCCCCCCC(=O)NO)cc(=O)oc2c1 [Compound 13b, N-Hydroxy-8-((7-butoxy-2-oxo-2H-benzopyran-4-yl)oxy)octanoic acid]
[9]
  IC50: 1970 ± 560 nM
[1]
  IC50: 1200 ± 170 nM
[10]
  IC50: 4090 ± 1540 nM
[11]
  IC50: 2930 ± 490 nM
[4]
  IC50: > 50000 nM
[5]
  IC50: > 20000 nM

## COCCOc1ccc2c(OCCCCCCCC(=O)NO)cc(=O)oc2c1 [Compound 13c, N-Hydroxy-8-((7-(2-methoxyethoxy)-2-oxo-2H-chromen-4-yl)oxy)octanoic acid]
[1]
  IC50: 590 ± 30 nM
[4]
  IC50: > 100000 nM
[5]
  IC50: > 100000 nM
[12]
  IC50: 360 to 2910 nM
[6]
  acetylation level of histone H3: increased the acetylation levels of histone H3 and H4 in a clearly dose-dependent manner
[7]
  acetylation level of histone H4: increased the acetylation levels of histone H3 and H4 in a clearly dose-dependent manner
[8]
  inhibition of colony formation: significant inhibition of the colony formation more potently than SAHA
[2]; MDA-MB-231, 1 µM
  cell apoptosis: 19.26%
[2]; MDA-MB-231, 2 µM
  cell apoptosis: 25.14%
[3]
  cell cycle arrest: arrested MDA-MB-231 cells in a dose-dependent manner

## COCCCOc1ccc2c(OCCCCCCCC(=O)NO)cc(=O)oc2c1 [Compound 13d, N-Hydroxy-8-((7-(3-methoxypropoxy)-2-oxo-2H-chromen-4-yl)oxy)octanoic acid]
[9]
  IC50: 1700 ± 390 nM
[1]
  IC50: 2360 ± 500 nM
[10]
  IC50: 4110 ± 650 nM
[11]
  IC50: 5230 ± 1630 nM
[4]
  IC50: > 20000 nM
[5]
  IC50: > 20000 nM

## O=C(CCCCCCCOc1cc(=O)oc2cc(OCC3CCCCC3)ccc12)NO [Compound 13g]
[13]
  IC50: 5.01 nM

## O=C(CCCCCCCOc1cc(=O)oc2cc(OCc3ccccc3[N+](=O)[O-])ccc12)NO [Compound 14b, N-Hydroxy-8-((7-((2-nitrobenzyl)oxy)-2-oxo-2H-chromen-4-yl)oxy)octanoic acid]
[13]
  IC50: 1.59 nM

## O=C(CCCCCCCOc1cc(=O)oc2cc(OCc3cccc([N+](=O)[O-])c3)ccc12)NO [Compound 14c, N-Hydroxy-8-((7-((3-nitrobenzyl)oxy)-2-oxo-2H-chromen-4-yl)oxy)octanoic acid]
[13]
  IC50: 1.97 nM

## O=C(CCCCCCCOc1cc(=O)oc2cc(OCc3ccc([N+](=O)[O-])cc3)ccc12)NO [Compound 14d, N-Hydroxy-8-((7-((4-nitrobenzyl)oxy)2-oxo-2H-chromen-4-yl)oxy)octanoic acid]
[13]
  IC50: 1.72 nM

## O=C(CCCCCCCOc1cc(=O)oc2cc(OCc3ccccc3Cl)ccc12)NO [Compound 14h, N-Hydroxy-8-((7-((2-chlorobenzyl)oxy)-2-oxo-2H-chromen-4-yl)oxy)octanoic acid]
[13]
  IC50: 2.4 nM

## O=C(CCCCCCCOc1cc(=O)oc2cc(OCc3cccc(Cl)c3)ccc12)NO [Compound 14i, N-Hydroxy-8-((7-((3-chlorobenzyl)oxy)-2-oxo-2H-chromen-4-yl)oxy)octanoic acid]
[13]
  IC50: 4.25 nM

## O=C(CCCCCCCOc1cc(=O)oc2cc(OCc3ccc(Cl)cc3)ccc12)NO [Compound 14j, N-Hydroxy-8-((7-((4-chlorobenzyl)oxy)-2-oxo-2H-chromen-4-yl)oxy)octanoic acid]
[13]
  IC50: 2.52 nM

## O=C(CCCCCCCOc1cc(=O)oc2cc(OCc3ccc(Br)cc3)ccc12)NO [Compound 14k, N-Hydroxy-8-((7-((4-bromobenzyl)oxy)2-oxo-2H-chromen-4-yl)oxy)octanoic acid]
[13]
  IC50: 3.02 nM

## O=C(CCCCCCCOc1cc(=O)oc2cc(OCc3ccc(C(F)(F)F)cc3)ccc12)NO [Compound 14l]
[13]
  IC50: 5.5 nM

## O=C(CCCCCCCOc1cc(=O)oc2cc(OCc3c(F)cccc3F)ccc12)NO [Compound 14m, N-Hydroxy-8-((7-((2,6-difluorobenzyl)oxy)2-oxo-2H-chromen-4-yl)oxy)octanoic acid]
[9]
  IC50: 1950 ± 290 nM
[1]
  IC50: 4810 ± 800 nM
[10]
  IC50: 7580 ± 2050 nM
[11]
  IC50: 6050 ± 1330 nM

## O=C(CCCCCCCOc1cc(=O)oc2cc(OCc3ccc(F)cc3Cl)ccc12)NO [Compound 14o, N-Hydroxy-8-((7-((2-chloro-4-fluorobenzyl)oxy)2-oxo-2H-chromen-4-yl)oxy)octanoic acid]
[13]
  IC50: 3.22 nM

## Cc1ccccc1COc1ccc2c(OCCCCCCCC(=O)NO)cc(=O)oc2c1 [Compound 14p, N-Hydroxy-8-((7-((2-methylbenzyl)oxy)-2-oxo-2H-chromen-4-yl)oxy)octanoic acid]
[13]
  IC50: 1.56 nM

## Cc1cccc(COc2ccc3c(OCCCCCCCC(=O)NO)cc(=O)oc3c2)c1 [Compound 14q, N-Hydroxy-8-((7-((3-methylbenzyl)oxy)-2-oxo-2H-chromen-4-yl)oxy)octanoic acid]
[13]
  IC50: 2.95 nM

## Cc1ccc(COc2ccc3c(OCCCCCCCC(=O)NO)cc(=O)oc3c2)cc1 [Compound 14r, N-Hydroxy-8-((7-((4-methylbenzyl)oxy)2-oxo-2H-chromen-4-yl)oxy)octanoic acid]
[13]
  IC50: 2.5 nM

## Cc1cccc(C)c1COc1ccc2c(OCCCCCCCC(=O)NO)cc(=O)oc2c1 [Compound 14s, N-Hydroxy-8-((7-((2,6-dimethylbenzyl)oxy)-2-oxo-2H-chromen-4-yl)oxy)octanoic acid]
[13]
  IC50: 5.19 nM

From paper PMC7036849, “Development of Coumarin-Based Hydroxamates as Histone Deacetylase Inhibitors with Antitumor Activities” (Molecules, 2020)
